Results taken from patent publication US4493785A, “Anthraquinone compounds” (Imperial Chemical Industries PLC, priority 1982, dated 1985).

assay: Order parameter (S) of the dye in liquid crystal material; assay type: physicochemical; settings: liquid crystal material E 43, 20° C.
Procedure: (§1) (i) Order parameters, solubilities and stabilities reported in Tables I to V were measured in the liquid crystal material, E 43, which is referred to as Host B in UK Specification No. 2081736A and is available from BDH Ltd of Poole, Dorset. Measurements were made at 20° C. unless otherwise indicated.
(§2) (iii) The liquid crystal materials in Table V are:
(§3) ZLI 1695: Available from E. Merck Co, Darmstadt, W. Germany;
(§4) FBCO Ester: Host 12 of UK application No. 8205153.
(§5) (iv) In Table V "S" means order parameter and "Sol" means solubility (wt %) in the appropriate liquid crystal material.

Row | Compound | Order Parameter (S)
1 | CNc1cc(CC(C)C)c(O)c2c1C(=O)c1c(NC)cc(CC(C)C)c(O)c1C2=O [iso-propyl, Comparative Dye, TABLE III] | 0.54
2 | CCCCCCc1cc(N)c2c(c1O)C(=O)c1c(O)c(CCCCCC)cc(N)c1C2=O [Example 3, 2,7-Di-n-hexyl-4,5-diaminochrysazin] | 0.76
3 | CCC(CC)Cc1cc(N)c2c(c1O)C(=O)c1c(O)c(CC(CC)CC)cc(N)c1C2=O [--CH(C2 H5)2] | 0.66
4 | CCCCCCCc1cc(N)c2c(c1O)C(=O)c1c(O)c(CCCCCCC)cc(N)c1C2=O [Example 2c, 2,7-Di-n-heptyl-4,5-diaminochrysazin] | 0.78
5 | CCCCCc1cc(N)c2c(c1O)C(=O)c1c(O)c(CCCCC)cc(N)c1C2=O [Example 1c, 2,7-Di-n-pentyl-4,5-diamino-chrysazin] | 0.77
6 | CCC(C)Cc1cc(N)c2c(c1O)C(=O)c1c(O)c(CC(C)CC)cc(N)c1C2=O (centres unmarked) [--CH(CH3)CH2 CH3] | 0.68
7 | CCCCCc1cc(NC)c2c(c1O)C(=O)c1c(O)c(CCCCC)cc(NC)c1C2=O [Example 6c] | 0.66
8 | CCCCCCCc1cc(N)c2c(c1O)C(=O)c1c(O)c(CCCCCCC)cc(NC)c1C2=O [Example 5b, 2,7-di-n-heptyl-4-amino-5-methylaminochrysazin] | 0.68
9 | CCCCCCCCc1cc(N)c2c(c1O)C(=O)c1c(O)c(CCCCCCCC)cc(N)c1C2=O [Example 4, 2,7-di-n-octyl-4,5-diaminochrysazin] | 0.73
10 | CNc1cc(CC(C)C)c(O)c2c1C(=O)c1c(N)cc(CC(C)C)c(O)c1C2=O [iso-propyl, Comparative Dye, TABLE II] | 0.63
11 | CCCCCc1cc(N)c2c(c1O)C(=O)c1c(O)c(CCCCC)cc(NC)c1C2=O [Example 6b] | 0.72
12 | CCCCCCCc1cc(NC)c2c(c1O)C(=O)c1c(O)c(CCCCCCC)cc(NC)c1C2=O [Example 5c, 2,7-di-n-heptyl-4,5-di(methylamino)chrysazin] | 0.67
13 | CC(CCCc1cc(N)c2c(c1O)C(=O)c1c(O)c(CCCC(C)CC(C)(C)C)cc(N)c1C2=O)CC(C)(C)C (centres unmarked) [--C2 H4 CH(CH3)CH2 C(CH3)3, reference compound] | 0.71

same assay, conditions: liquid crystal material FBCO Ester, 20° C.

Row | Compound | S (order parameter)
14 | CCCCCCCc1cc(N)c2c(c1O)C(=O)c1c(O)c(CCCCCCC)cc(N)c1C2=O [Example 2c, 2,7-Di-n-heptyl-4,5-diaminochrysazin] | 0.70
15 | CCCCCc1cc(N)c2c(c1O)C(=O)c1c(O)c(CCCCC)cc(N)c1C2=O [Example 1c, 2,7-Di-n-pentyl-4,5-diamino-chrysazin] | 0.69

same assay, conditions: liquid crystal material ZLI 1132, 20° C.

Row | Compound | S (order parameter)
16 | CCCCCCCc1cc(N)c2c(c1O)C(=O)c1c(O)c(CCCCCCC)cc(N)c1C2=O [Example 2c, 2,7-Di-n-heptyl-4,5-diaminochrysazin] | 0.78
17 | CCCCCc1cc(N)c2c(c1O)C(=O)c1c(O)c(CCCCC)cc(N)c1C2=O [Example 1c, 2,7-Di-n-pentyl-4,5-diamino-chrysazin] | 0.77

same assay, conditions: liquid crystal material ZLI 1695, 20° C.

Row | Compound | S (order parameter)
18 | CCCCCCCc1cc(N)c2c(c1O)C(=O)c1c(O)c(CCCCCCC)cc(N)c1C2=O [Example 2c, 2,7-Di-n-heptyl-4,5-diaminochrysazin] | 0.80
19 | CCCCCc1cc(N)c2c(c1O)C(=O)c1c(O)c(CCCCC)cc(N)c1C2=O [Example 1c, 2,7-Di-n-pentyl-4,5-diamino-chrysazin] | 0.79

assay: Solubility (wt %) of the dye in liquid crystal material; assay type: physicochemical; settings: liquid crystal material E 43, 20° C.
Procedure: as §1, §2, §3, §4, §5

Row | Compound | Solubility [wt %]
20 | CCCCCCc1cc(N)c2c(c1O)C(=O)c1c(O)c(CCCCCC)cc(N)c1C2=O [Example 3, 2,7-Di-n-hexyl-4,5-diaminochrysazin] | 4.3
21 | CCCCCCCc1cc(N)c2c(c1O)C(=O)c1c(N)cc(CCCCCCC)c(O)c1C2=O [n-hexyl, Comparative Dyes (Formula B), reference compound] | < 0.01
22 | CCCCCCCc1cc(N)c2c(c1O)C(=O)c1c(O)c(CCCCCCC)cc(N)c1C2=O [Example 2c, 2,7-Di-n-heptyl-4,5-diaminochrysazin] | 5.5
23 | CCCCCc1cc(N)c2c(c1O)C(=O)c1c(O)c(CCCCC)cc(N)c1C2=O [Example 1c, 2,7-Di-n-pentyl-4,5-diamino-chrysazin] | 8.0
24 | CCCCCc1cc(NC)c2c(c1O)C(=O)c1c(O)c(CCCCC)cc(NC)c1C2=O [Example 6c] | 0.9
25 | CCCCCCCc1cc(N)c2c(c1O)C(=O)c1c(O)c(CCCCCCC)cc(NC)c1C2=O [Example 5b, 2,7-di-n-heptyl-4-amino-5-methylaminochrysazin] | 0.5
26 | CCCCCCCCc1cc(N)c2c(c1O)C(=O)c1c(O)c(CCCCCCCC)cc(N)c1C2=O [Example 4, 2,7-di-n-octyl-4,5-diaminochrysazin] | 13.0
27 | CCCCCc1cc(N)c2c(c1O)C(=O)c1c(O)c(CCCCC)cc(NC)c1C2=O [Example 6b] | 3.3
28 | CCCCCCCc1cc(NC)c2c(c1O)C(=O)c1c(O)c(CCCCCCC)cc(NC)c1C2=O [Example 5c, 2,7-di-n-heptyl-4,5-di(methylamino)chrysazin] | 0.5
29 | CC(CCCc1cc(N)c2c(c1O)C(=O)c1c(O)c(CCCC(C)CC(C)(C)C)cc(N)c1C2=O)CC(C)(C)C (centres unmarked) [--C2 H4 CH(CH3)CH2 C(CH3)3, reference compound] | 1.6

same assay, conditions: liquid crystal material FBCO Ester, 20° C.

Row | Compound | Sol (solubility) [wt %]
30 | CCCCCCCc1cc(N)c2c(c1O)C(=O)c1c(O)c(CCCCCCC)cc(N)c1C2=O [Example 2c, 2,7-Di-n-heptyl-4,5-diaminochrysazin] | 3
31 | CCCCCc1cc(N)c2c(c1O)C(=O)c1c(O)c(CCCCC)cc(N)c1C2=O [Example 1c, 2,7-Di-n-pentyl-4,5-diamino-chrysazin] | 3

same assay, conditions: liquid crystal material ZLI 1132, 20° C.

Row | Compound | Sol (solubility) [wt %]
32 | CCCCCCCc1cc(N)c2c(c1O)C(=O)c1c(O)c(CCCCCCC)cc(N)c1C2=O [Example 2c, 2,7-Di-n-heptyl-4,5-diaminochrysazin] | 7.0
33 | CCCCCc1cc(N)c2c(c1O)C(=O)c1c(O)c(CCCCC)cc(N)c1C2=O [Example 1c, 2,7-Di-n-pentyl-4,5-diamino-chrysazin] | 10.0

same assay, conditions: liquid crystal material ZLI 1695, 20° C.

Row | Compound | Sol (solubility) [wt %]
34 | CCCCCc1cc(N)c2c(c1O)C(=O)c1c(O)c(CCCCC)cc(N)c1C2=O [Example 1c, 2,7-Di-n-pentyl-4,5-diamino-chrysazin] | 6.5

assay: Stability to irradiation with 1 kW phosphor-coated mercury vapour lamp; assay type: physicochemical; settings: E 43; 100 hr irradiation, 1 kW mercury vapour lamp, 30° C.
Procedure: as §1
(ii) Stabilities were measured as the percentage decrease in absorption at the absorption maximum after the indicated period of irradiation with a 1 kW phosphor-coated, mercury vapour lamp at 30° C.

Row | Compound | Stability (percentage decrease in absorption at the absorption maximum) [%]
35 | CCCCCc1cc(N)c2c(c1O)C(=O)c1c(O)c(CCCCC)cc(N)c1C2=O [Example 1c, 2,7-Di-n-pentyl-4,5-diamino-chrysazin] | 97

same assay, conditions: E 43; 400 hr irradiation, 1 kW mercury vapour lamp, 30° C.

Row | Compound | Stability (percentage decrease in absorption at the absorption maximum) [%]
36 | CCCCCCCc1cc(N)c2c(c1O)C(=O)c1c(O)c(CCCCCCC)cc(N)c1C2=O [Example 2c, 2,7-Di-n-heptyl-4,5-diaminochrysazin] | 92

same assay, conditions: E 43; 2000 hr irradiation, 1 kW mercury vapour lamp, 30° C.

Row | Compound | Stability (percentage decrease in absorption at the absorption maximum) [%]
37 | CCCCCCCc1cc(N)c2c(c1O)C(=O)c1c(O)c(CCCCCCC)cc(N)c1C2=O [Example 2c, 2,7-Di-n-heptyl-4,5-diaminochrysazin] | 87
38 | CCCCCc1cc(N)c2c(c1O)C(=O)c1c(O)c(CCCCC)cc(N)c1C2=O [Example 1c, 2,7-Di-n-pentyl-4,5-diamino-chrysazin] | 73

assay: Extinction coefficient; assay type: physicochemical; settings: at 575 nm

Row | Compound | extinction coefficient
39 | CCCCCCCc1cc(NC)c2c(c1O)C(=O)c1c(O)c(CCCCCCC)cc(NC)c1C2=O [Example 5c, 2,7-di-n-heptyl-4,5-di(methylamino)chrysazin] | 22,100

same assay, conditions: at 675 nm

Row | Compound | extinction coefficient
40 | CCCCCCCc1cc(N)c2c(c1O)C(=O)c1c(O)c(CCCCCCC)cc(NC)c1C2=O [Example 5b, 2,7-di-n-heptyl-4-amino-5-methylaminochrysazin] | 19,522
41 | CCCCCc1cc(N)c2c(c1O)C(=O)c1c(O)c(CCCCC)cc(NC)c1C2=O [Example 6b] | 23,785
